Assay results from a compilation of properties of binary mixtures (doi:10.1016/j.jct.2008.09.001).

Assay: xn = mol fraction of the nth substance listed
Conditions: 101.3 kPa

In the case of `CCCCCCCC[n+]1ccccc1.F[B-](F)(F)F` + O, the viscosity (283.15 K, x2 = 0) is reported as 640 mPa·s, the viscosity (283.15 K, x2 = 0.1) is reported as 404 mPa·s and the viscosity (283.15 K, x2 = 0.184) is reported as 261 mPa·s. It also gave a viscosity (283.15 K, x2 = 0.324) of 161.4 mPa·s, a viscosity (283.15 K, x2 = 0.477) of 116.4 mPa·s and a viscosity (283.15 K, x2 = 0.562) of 63.8 mPa·s. It also gave a viscosity (283.15 K, x2 = 0.67) of 65.55 mPa·s, a viscosity (283.15 K, x2 = 0.758) of 51.8 mPa·s and a viscosity (283.15 K, x2 = 0.783) of 54.27 mPa·s. The viscosity (288.15 K, x2 = 0.562) was 49.84 mPa·s, the viscosity (288.15 K, x2 = 0.783) was 38.63 mPa·s and the viscosity (293.15 K, x2 = 0) was 320 mPa·s. The viscosity (293.15 K, x2 = 0.477) was 69.9 mPa·s, the viscosity (293.15 K, x2 = 0.562) was 39.6 mPa·s and the viscosity (293.15 K, x2 = 0.67) was 40.42 mPa·s. For the same compound, the viscosity (293.15 K, x2 = 0.758) was 28.74 mPa·s, the viscosity (293.15 K, x2 = 0.783) was 29.21 mPa·s and the viscosity (298.15 K, x2 = 0) was 234 mPa·s. For the same compound, the viscosity (298.15 K, x2 = 0.1) was 159.1 mPa·s, the viscosity (298.15 K, x2 = 0.184) was 112.3 mPa·s and the viscosity (298.15 K, x2 = 0.324) was 72 mPa·s. The viscosity (298.15 K, x2 = 0.477) was 55.07 mPa·s, the viscosity (298.15 K, x2 = 0.562) was 31.77 mPa·s and the viscosity (298.15 K, x2 = 0.783) was 22.73 mPa·s. The viscosity (303.15 K, x2 = 0) was 171.9 mPa·s, the viscosity (303.15 K, x2 = 0.1) was 122.5 mPa·s and the viscosity (303.15 K, x2 = 0.184) was 86 mPa·s. For the same compound, the viscosity (303.15 K, x2 = 0.324) was 57.88 mPa·s, the viscosity (303.15 K, x2 = 0.477) was 44.37 mPa·s and the viscosity (303.15 K, x2 = 0.562) was 26.47 mPa·s. For the same compound, the viscosity (303.15 K, x2 = 0.67) was 26.82 mPa·s, the viscosity (303.15 K, x2 = 0.758) was 19.17 mPa·s and the viscosity (303.15 K, x2 = 0.783) was 18.09 mPa·s. For the same compound, the viscosity (308.15 K, x2 = 0.1) was 96.2 mPa·s, the viscosity (308.15 K, x2 = 0.184) was 68.3 mPa·s and the viscosity (308.15 K, x2 = 0.324) was 47.09 mPa·s. For the same compound, the viscosity (308.15 K, x2 = 0.477) was 36.11 mPa·s, the viscosity (308.15 K, x2 = 0.67) was 22.27 mPa·s and the viscosity (308.15 K, x2 = 0.758) was 15.97 mPa·s. It also gave a viscosity (313.15 K, x2 = 0) of 105.7 mPa·s, a viscosity (313.15 K, x2 = 0.1) of 71.5 mPa·s and a viscosity (313.15 K, x2 = 0.184) of 54.93 mPa·s. For the same compound, the viscosity (313.15 K, x2 = 0.324) was 38.75 mPa·s, the viscosity (313.15 K, x2 = 0.477) was 30.19 mPa·s and the viscosity (313.15 K, x2 = 0.758) was 13.56 mPa·s. The viscosity (313.15 K, x2 = 0.783) was 12.78 mPa·s, the viscosity (318.15 K, x2 = 0.1) was 57.41 mPa·s and the viscosity (318.15 K, x2 = 0.184) was 44.98 mPa·s. The viscosity (318.15 K, x2 = 0.477) was 25.23 mPa·s, the viscosity (318.15 K, x2 = 0.562) was 16.88 mPa·s and the viscosity (318.15 K, x2 = 0.67) was 15.98 mPa·s. It also gave a viscosity (318.15 K, x2 = 0.758) of 11.52 mPa·s, a viscosity (318.15 K, x2 = 0.783) of 11.08 mPa·s and a viscosity (323.15 K, x2 = 0) of 64.89 mPa·s. For the same compound, the viscosity (323.15 K, x2 = 0.1) was 46.73 mPa·s, the viscosity (323.15 K, x2 = 0.184) was 37.06 mPa·s and the viscosity (323.15 K, x2 = 0.477) was 21.39 mPa·s. For the same compound, the viscosity (323.15 K, x2 = 0.67) was 13.65 mPa·s, the viscosity (323.15 K, x2 = 0.758) was 9.95 mPa·s and the viscosity (323.15 K, x2 = 0.783) was 9.39 mPa·s. For the same compound, the viscosity (328.15 K, x2 = 0) was 53.52 mPa·s, the viscosity (328.15 K, x2 = 0.324) was 23.23 mPa·s and the viscosity (328.15 K, x2 = 0.477) was 18.15 mPa·s. For the same compound, the viscosity (328.15 K, x2 = 0.562) was 12.05 mPa·s, the viscosity (328.15 K, x2 = 0.67) was 11.88 mPa·s and the viscosity (328.15 K, x2 = 0.783) was 8.2 mPa·s. For the same compound, the viscosity (333.15 K, x2 = 0.324) was 19.92 mPa·s, the viscosity (333.15 K, x2 = 0.477) was 15.84 mPa·s and the viscosity (333.15 K, x2 = 0.562) was 10.61 mPa·s. The viscosity (333.15 K, x2 = 0.67) was 10.38 mPa·s, the viscosity (333.15 K, x2 = 0.783) was 7.17 mPa·s and the viscosity (338.15 K, x2 = 0) was 38.1 mPa·s. The viscosity (338.15 K, x2 = 0.1) was 27.06 mPa·s, the viscosity (338.15 K, x2 = 0.184) was 22.38 mPa·s and the viscosity (338.15 K, x2 = 0.324) was 17.32 mPa·s. It also gave a viscosity (338.15 K, x2 = 0.477) of 13.44 mPa·s, a viscosity (338.15 K, x2 = 0.758) of 6.75 mPa·s and a viscosity (338.15 K, x2 = 0.783) of 6.31 mPa·s. For the same compound, the viscosity (343.15 K, x2 = 0) was 32.38 mPa·s, the viscosity (343.15 K, x2 = 0.1) was 23.06 mPa·s and the viscosity (343.15 K, x2 = 0.184) was 19.25 mPa·s. It also gave a viscosity (343.15 K, x2 = 0.477) of 11.58 mPa·s, a viscosity (343.15 K, x2 = 0.562) of 8.15 mPa·s and a viscosity (343.15 K, x2 = 0.758) of 5.99 mPa·s. It also gave a viscosity (343.15 K, x2 = 0.783) of 5.58 mPa·s, a viscosity (348.15 K, x2 = 0.1) of 19.83 mPa·s and a viscosity (348.15 K, x2 = 0.184) of 16.71 mPa·s. It also gave a viscosity (348.15 K, x2 = 0.324) of 13.13 mPa·s, a viscosity (348.15 K, x2 = 0.562) of 7.17 mPa·s and a viscosity (348.15 K, x2 = 0.67) of 7.19 mPa·s. It also gave a viscosity (348.15 K, x2 = 0.758) of 5.29 mPa·s, a viscosity (348.15 K, x2 = 0.783) of 4.97 mPa·s and a viscosity (353.15 K, x2 = 0) of 24.05 mPa·s.
